The text below walks through data of publication PMC9714921 (PLOS Pathogens, 2022).

Structures are written as SMILES. Values joined by “and” are separate entries in the source; they are usually repeats but may differ in a detail not shown here. Equal values may be shown once. Where a name gives a salt, the structure may show the parent alone. Read-outs that look alike come from different tables or passages of the source.

For one experiment, the target named is Asu-ACR-16 (Ascaris suum, UniProt F1KYJ9). Kind of experiment: cell-based. The experiment is classed as cell-based. As to the method:
(§1) cRNA for oocyte injection was prepared with the mMESSAGE mMACHINE T7 kit following manufacturers protocol (Ambion, USA). Concentration was determined using a Nanodrop spectrophotometer. Desired subunit combinations with associated accessory proteins were mixed and diluted with nuclease-free water to a final concentration of 250 ng/uL for each construct.
(§2) Adult female X. laevis oocyte extraction was performed in accordance with the McGill University Animal Use Protocol 2015–7758 following standard protocol. Briefly, frog ovary lobes were placed in a Ca^2+-free OR2 solution (82 mM NaCl, 2 mM KCl, 1 mM MgCl2, 5 mM HEPES buffer, pH 7.3) and manually divided into clusters of <10 oocytes with thin tweezers followed by a 90-minute incubation in 10 mg/mL collagenase type II (Sigma-Aldrich, USA). Oocytes were washed in Ca^2+-free OR2 and placed ND96 solution (NaCl 96 mM, KCl 2 mM, CaCl2 1.8 mM, MgCl2 1 mM and HEPES 5 mM, pH 7.3) supplemented with sodium pyruvate 2.5 mM [86] and incubated at 18°C until cRNA injection. Oocytes were injected with 50 nL (12.5 ng of each injected gene) of the desired cRNA subunit and accessory protein combination mix with the NanojectII (Drummond Scientific, USA). Following injection, oocytes were incubated in ND96 buffer at 18°C until electrophysiology. All electrophysiology was conducted two days post-injection, except for the expression analysis assay in which oocytes were measured every day after injection for three consecutive days.
(§3) All drugs were dissolved in recording solution (NaCl 100 mM, KCl 2.5 mM, CaCl2 1 mM, HEPES 5 mM, pH 7.3) to a stock concentration of 10 mM and diluted to their final recording concentrations. Oxantel and bephenium were first dissolved in DMSO to ensure a final recording concentration contained less than 0.1% DMSO. For agonist profiling, all drugs were diluted to a concentration of 100 μM.
(§4) Oocytes were placed individually in an RC3Z chamber (Harvard Apparatus, USA) submerged in recording solution (NaCl 100 mM, KCl 2.5 mM, CaCl2 1 mM, HEPES 5 mM, pH 7.3). The RC3Z chamber was connected to a perfusion system containing recording solution and ligand solutions. Pulled glass capillaries (World Precision Instruments, USA) were filled with 3M KCl and the tips clipped and checked for appropriate resistance (between 0.5 and 5 MΩ). A 3M KCl agar bridge grounded the oocyte bath chamber. Measurements were made using an Axon Axoclamp 900A amplifier with Digidata1550M. […] Ligand solutions were applied to the oocytes with an approximate flow rate of 1.2 m/s and current responses measured. Oocytes were exposed to the ligand solution until a distinct current peak was observed followed by a wash with the recording solution until current returned to baseline for a minimum of 10 seconds until the next ligand exposure. For BAPTA-AM exposed oocytes, oocytes were incubated in 100 μM BAPTA-AM for four hours prior to electrophysiology recording. Data was analyzed using Clampex 9.2 (Axon Instruments, USA) and statistical analysis and graphs produced in Prism (GraphPad version 9.1). T-tests were used to compare responses with error bars representing standard error. For concentration-response curves, individual oocyte current response to the different ligand concentrations were normalized to the response obtained with 300 μM. Data was fit using the Graphpad “log(agonist) vs normalized response–variable slope” equation, with 95% confidence intervals being reported. […] For examples of oocyte responses, recordings were filtered in Clampfit using the lowband pass at 40 Hz cutoff.

The target of the next experiment is Dme-ACR-16 (Dracunculus medinensis, UniProt A0A0N4U0T6). Briefly: cell-based. In kind it is cell-based. As for the experimental part:
as §1, §2, §3, §4

The target in a further experiment is Tzc-ACR-16 (Thelazia callipaeda, UniProt A0A158RD20). Kind of experiment: cell-based. In kind it is cell-based. As for the experimental part:
as §1, §2, §3, §4

Another experiment concerns Gpu-ACR-16. Briefly: Voltage-clamp electrophysiology, N-AChR reconstituted in Xenopus laevis oocytes. Particulars: for response to 100 μM ligand relative to 100 μM ACh (in words): agonist panel, Fig 5C; for current response to 100 μM nicotine: co-injected: H. contortus RIC-3. The experiment is classed as cell-based, Gonglyonema pulchrum. As to the method: as §1, §2, §3, §4

In experiment [1] the target is Asu-ACR-16-bmaICL chimera (Ascaris suum; Brugia malayi, UniProt A0A4E9FSR7+F1KYJ9). The experiment is classed as cell-based, A. suum (B. malayi ICL). Particulars: compared to Asu-ACR-16 profile, S3D Fig. As to the method: B. malayi acr-16 and accessory proteins ric-3, unc-50, unc-74 and molo-1 were cloned from adult female B. malayi cDNA received as a gift from Dr. T. Geary using the primers described in S1 Table. B. malayi eat-18 was prepared from two overlapping oligonucleotide primers. Other subunits were synthesized from their predicted genome sequence (Gene Universal, USA) (S2 Table). […] All sequences were cloned into the pTD2 oocyte expression vector. Asu-ACR-16 and Tzc-ACR-16 chimeras were constructed using appropriate restriction enzymes, reciprocal exchange through ligation and confirmed by sequencing (McLab, USA).
as §1, §2
All drugs were dissolved in recording solution (NaCl 100 mM, KCl 2.5 mM, CaCl2 1 mM, HEPES 5 mM, pH 7.3) to a stock concentration of 10 mM and diluted to their final recording concentrations. […]
Oocytes were placed individually in an RC3Z chamber (Harvard Apparatus, USA) submerged in recording solution (NaCl 100 mM, KCl 2.5 mM, CaCl2 1 mM, HEPES 5 mM, pH 7.3). […] Ligand solutions were applied to the oocytes with an approximate flow rate of 1.2 m/s and current responses measured. […] Data was analyzed using Clampex 9.2 (Axon Instruments, USA) and statistical analysis and graphs produced in Prism (GraphPad version 9.1). […]

In another experiment the test system is Bma-ACR-16. In kind it is cell-based, Brugia malayi. Particulars: co-injected: H. contortus RIC-3. As to the method:
as §1, §2, §3, §4

The next experiment deals with C. elegans N-AChR. Set-up: method as in Charvet et al., 2018 [40]. Particulars: accessory protein Ric-3; ref Charvet et al., 2018 [40]; read-out: EC50 μM NIC; cited from earlier work.
The test system of another experiment is N. americanus N-AChR. The conditions noted are these: accessory protein Ric-3; ref [33]; read-out: EC50 μM NIC; cited from earlier work.
Another experiment relates to A celanicum N-AChR. The conditions noted are these: accessory protein Ric-3; ref [33]; read-out: EC50 μM NIC; cited from earlier work.
For a further experiment, the system named is P. equorum N-AChR. Particulars: accessory protein Ric-3; ref [40]; read-out: EC50 μM NIC; cited from earlier work.

Chain of Tzc-ACR-16 (A0A158RD20 entry or part of it): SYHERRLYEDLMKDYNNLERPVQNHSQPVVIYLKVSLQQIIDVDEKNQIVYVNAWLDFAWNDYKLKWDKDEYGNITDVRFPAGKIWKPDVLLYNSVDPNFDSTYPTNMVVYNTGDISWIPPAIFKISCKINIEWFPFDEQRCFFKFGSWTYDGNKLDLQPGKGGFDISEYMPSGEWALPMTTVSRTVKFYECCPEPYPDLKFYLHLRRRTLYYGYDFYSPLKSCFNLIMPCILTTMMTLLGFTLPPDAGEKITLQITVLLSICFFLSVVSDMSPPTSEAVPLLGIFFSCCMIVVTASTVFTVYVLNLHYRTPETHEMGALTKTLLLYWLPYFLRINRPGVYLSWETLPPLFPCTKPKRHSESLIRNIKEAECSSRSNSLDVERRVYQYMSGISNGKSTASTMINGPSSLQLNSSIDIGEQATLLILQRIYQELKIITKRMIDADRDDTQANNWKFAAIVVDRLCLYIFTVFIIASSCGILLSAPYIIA
Chain of Dme-ACR-16 (A0A0N4U0T6 entry or part of it): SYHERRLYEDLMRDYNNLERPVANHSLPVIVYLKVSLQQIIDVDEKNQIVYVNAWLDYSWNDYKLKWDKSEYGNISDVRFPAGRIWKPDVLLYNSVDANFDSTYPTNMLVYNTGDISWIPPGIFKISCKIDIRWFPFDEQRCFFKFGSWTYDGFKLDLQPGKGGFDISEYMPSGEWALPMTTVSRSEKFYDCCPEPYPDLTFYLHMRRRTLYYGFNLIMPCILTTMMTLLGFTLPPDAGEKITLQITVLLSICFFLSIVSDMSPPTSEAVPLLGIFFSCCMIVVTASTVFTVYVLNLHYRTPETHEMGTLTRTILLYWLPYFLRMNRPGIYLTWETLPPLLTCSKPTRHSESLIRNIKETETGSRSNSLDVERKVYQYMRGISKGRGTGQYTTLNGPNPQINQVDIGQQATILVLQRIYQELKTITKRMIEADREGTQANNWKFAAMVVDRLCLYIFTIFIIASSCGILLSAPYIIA

`CN1CCCN=C1/C=C/c1cccc(O)c1` [OXA, oxantel]: the “response to 100 μM ligand relative to 100 μM ACh (in words)” value at Asu-ACR-16 (agonist panel, Fig 5A) is “smaller response”; on Dme-ACR-16 (agonist panel, Fig 5B) it was “smaller response”; on Tzc-ACR-16 (agonist panel, Fig 5D), “smaller response”; in the experiment on Gpu-ACR-16, “smaller response”.
For the compound `NC[C@H](O)c1ccc(O)c(O)c1` [NOR, norepinephrine], the “response to 100 μM ligand relative to 100 μM ACh (in words)” value at Asu-ACR-16 (agonist panel, Fig 5A) is listed as “No response”; on Dme-ACR-16 (agonist panel, Fig 5B), “No response”; on Tzc-ACR-16 (agonist panel, Fig 5D), “No response”; with Gpu-ACR-16, “No response”.
Consider `c1ccc([C@H]2CN3CCSC3=N2)cc1` [LEV, (-)-tetramisole hydrochloride], for which the “response to 100 μM ligand relative to 100 μM ACh (in words)” value at Asu-ACR-16 (agonist panel, Fig 5A) is reported as “No response”; at Dme-ACR-16 (agonist panel, Fig 5B) it was “No response”; on Tzc-ACR-16 (agonist panel, Fig 5D) it was “No response”; in the experiment with Gpu-ACR-16, “No response”.
As for `CNC[C@H](O)c1ccc(O)c(O)c1` [EPI, epinephrine], the “response to 100 μM ligand relative to 100 μM ACh (in words)” value on Asu-ACR-16, at Dme-ACR-16, at Tzc-ACR-16 and in the experiment with Gpu-ACR-16 was “No response” each time.
On to `NCCc1ccc(O)c(O)c1` [DA, dopamine], for which the “response to 100 μM ligand relative to 100 μM ACh (in words)” value at Asu-ACR-16 (agonist panel, Fig 5A) is “No response”; on Dme-ACR-16 (agonist panel, Fig 5B), “No response”; at Tzc-ACR-16 (agonist panel, Fig 5D) it was “No response”; in the experiment on Gpu-ACR-16, “No response”.
For the compound `CN1CCCN=C1/C=C/c1cccs1` [PYR, pyrantel], the “response to 100 μM ligand relative to 100 μM ACh (in words)” value at Asu-ACR-16 (agonist panel, Fig 5A) was “minimal response”; on Dme-ACR-16 (agonist panel, Fig 5B) it was “minimal response”; at Tzc-ACR-16 (agonist panel, Fig 5D), “minimal response”; in the experiment with Gpu-ACR-16 it was “minimal response”.
Consider `C[N+](C)(CCOc1ccccc1)Cc1ccccc1` [BEPH, bephenium], for which the “response to 100 μM ligand relative to 100 μM ACh (in words)” value on Asu-ACR-16 (agonist panel, Fig 5A) is listed as “No response”; at Dme-ACR-16 (agonist panel, Fig 5B), “No response”; on Tzc-ACR-16 (agonist panel, Fig 5D), “No response”; in the experiment on Gpu-ACR-16 it was “No response”.
Consider `C[N+](C)(C)CC(=O)O` [BET, betaine], for which the “response to 100 μM ligand relative to 100 μM ACh (in words)” value on Asu-ACR-16 (agonist panel, Fig 5A) is “No response”; on Dme-ACR-16 (agonist panel, Fig 5B), “No response”; at Tzc-ACR-16 (agonist panel, Fig 5D), “No response”; in the experiment on Gpu-ACR-16 it was “No response”.
On to `C[N+]1(C)CCN(c2ccccc2)CC1` [DMPP, dimethylphenylpiperazinium], for which the “response to 100 μM ligand relative to 100 μM ACh (in words)” value at Asu-ACR-16 (agonist panel, Fig 5A) is “smaller response”; on Dme-ACR-16 (agonist panel, Fig 5B) it was “smaller response”; at Tzc-ACR-16 (agonist panel, Fig 5D), “smaller response”; in the experiment on Gpu-ACR-16 it was “smaller response”. Moreover, the “response to 100 μM ligand relative to acetylcholine (in words)” value in experiment [1] is listed as “higher responses”.
Consider `NCCc1ccc(O)cc1` [TYR, tyramine], for which the “response to 100 μM ligand relative to 100 μM ACh (in words)” value is listed as “No response” at Asu-ACR-16 (agonist panel, Fig 5A); “No response” on Dme-ACR-16 (agonist panel, Fig 5B); “No response” at Tzc-ACR-16 (agonist panel, Fig 5D); “No response” in the experiment on Gpu-ACR-16.
In the case of `Cc1ccsc1/C=C/C1=NCCCN1C` [MOR, morantel], the “response to 100 μM ligand relative to 100 μM ACh (in words)” value on Asu-ACR-16 (agonist panel, Fig 5A) is reported as “minimal response”; on Dme-ACR-16 (agonist panel, Fig 5B), “minimal response”; at Tzc-ACR-16 (agonist panel, Fig 5D), “minimal response”; in the experiment with Gpu-ACR-16, “minimal response”.
A word on the EC50: it is the concentration giving half of the maximal effect. As for `CN1CCC[C@H]1c1cccnc1` [NIC, (-)-nicotine hydrogen tartrate], the EC50 at Asu-ACR-16 is 5.1 µM; on Dme-ACR-16, 3.8 µM; on Tzc-ACR-16, 4.9 µM; in the experiment with Gpu-ACR-16 (concentration-response 0.3-300 μM, normalized to 300 μM, with 95% CI, read-out: EC50 NIC), 2.1 µM; in the experiment on C. elegans N-AChR, 15.1 ± 1.3 µM; in the experiment with N. americanus N-AChR, 598 ± 59.1 µM. Besides, the EC50 in the experiment with A celanicum N-AChR is 24.4 ± 2.89 µM; in the experiment on P. equorum N-AChR it was 2.9 ± 0.5 µM. For the same compound, the “current response to 100 μM nicotine” value on Asu-ACR-16 is 2067 ± 74 nA and 2000–2200 nA; on Dme-ACR-16, 2025 ± 81 nA and 2000–2200 nA; at Tzc-ACR-16, 481 ± 45 nA and 400–600 nA; in the experiment on Gpu-ACR-16 it was ~ 1400 nA; in the experiment on Gpu-ACR-16 (listed as nicotine) it was 1231 ± 98 nA; in the experiment on Bma-ACR-16, 0 ± 0 nA and no measurable current. Further, the “response to 100 μM ligand relative to 100 μM ACh (in words)” value on Asu-ACR-16, on Dme-ACR-16, at Tzc-ACR-16 and in the experiment with Gpu-ACR-16 was “large response” in each case.
